# Biological target: Rho-associated protein kinase 1 (Homo sapiens, UniProt Q13464)
# Assay: In Vitro Assay
# Method: Compounds were dissolved in DMSO so that the final concentration of DMSO was <2%, and the reaction was initiated with Rho kinase variants. After incubation, the reaction was terminated by the addition of EDTA and the phosphorylated and non-phosphorylated peptides separated using a LABCHIP 3000 Reader (Caliper Life Sciences). […] Compounds were tested in dose-response format, and the inhibition of kinase activity was calculated at each concentration of compound.
# Chain of Rho-associated protein kinase 1 (Q13464 whole entry): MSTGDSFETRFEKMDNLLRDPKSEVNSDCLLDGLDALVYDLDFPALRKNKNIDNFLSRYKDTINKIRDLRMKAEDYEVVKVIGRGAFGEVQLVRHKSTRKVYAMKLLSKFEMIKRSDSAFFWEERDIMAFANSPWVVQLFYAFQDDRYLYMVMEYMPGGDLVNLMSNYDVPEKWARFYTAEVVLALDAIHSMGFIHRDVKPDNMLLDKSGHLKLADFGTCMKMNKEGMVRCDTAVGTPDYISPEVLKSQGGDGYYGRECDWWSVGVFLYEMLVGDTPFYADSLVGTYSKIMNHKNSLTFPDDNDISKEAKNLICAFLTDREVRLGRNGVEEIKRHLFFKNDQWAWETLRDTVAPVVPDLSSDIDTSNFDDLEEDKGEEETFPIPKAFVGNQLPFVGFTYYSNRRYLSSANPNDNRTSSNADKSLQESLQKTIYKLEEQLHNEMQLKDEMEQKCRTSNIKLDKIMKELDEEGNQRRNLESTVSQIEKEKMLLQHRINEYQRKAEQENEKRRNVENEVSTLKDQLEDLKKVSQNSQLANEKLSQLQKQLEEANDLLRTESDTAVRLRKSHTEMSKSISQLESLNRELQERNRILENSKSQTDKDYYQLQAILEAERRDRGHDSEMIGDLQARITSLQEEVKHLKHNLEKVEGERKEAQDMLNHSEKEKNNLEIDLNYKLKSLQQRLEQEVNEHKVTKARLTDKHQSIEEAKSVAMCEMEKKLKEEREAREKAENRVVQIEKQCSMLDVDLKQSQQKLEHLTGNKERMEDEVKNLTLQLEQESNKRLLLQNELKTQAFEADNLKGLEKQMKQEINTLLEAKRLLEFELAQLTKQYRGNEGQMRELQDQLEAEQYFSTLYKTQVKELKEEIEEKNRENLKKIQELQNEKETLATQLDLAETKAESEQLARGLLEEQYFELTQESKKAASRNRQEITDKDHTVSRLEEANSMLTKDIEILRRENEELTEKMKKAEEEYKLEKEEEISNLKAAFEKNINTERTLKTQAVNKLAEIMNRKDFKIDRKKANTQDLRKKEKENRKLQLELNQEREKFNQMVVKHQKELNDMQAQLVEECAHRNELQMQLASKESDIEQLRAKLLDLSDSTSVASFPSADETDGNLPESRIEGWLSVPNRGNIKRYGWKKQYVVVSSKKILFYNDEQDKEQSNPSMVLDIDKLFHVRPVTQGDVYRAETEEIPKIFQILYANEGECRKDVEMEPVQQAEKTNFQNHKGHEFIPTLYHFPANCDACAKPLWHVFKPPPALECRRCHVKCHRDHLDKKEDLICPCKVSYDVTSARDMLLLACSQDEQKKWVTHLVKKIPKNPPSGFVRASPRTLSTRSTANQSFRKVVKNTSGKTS
row,IC50 [nM],SMILES
1,< 100,"O=C(Nc1ccc(-c2n[nH]c(=O)c3ccccc23)cc1)c1cc2ncccn2n1 [US9926282, Example 102]"
2,< 100,"O=C(Nc1ccc(-c2n[nH]c(=O)c3ccccc23)cc1)c1c[nH]c2ncc(F)cc12 [US9926282, Example 120]"
3,< 100,"CCc1c(C(=O)Nc2ccc(-c3n[nH]c(=O)c4ccccc34)cc2)nnn1-c1cccc(Cl)c1 [US9926282, Example 225]"
4,< 100,"O=C(Nc1ccc(-c2n[nH]c(=O)c3ccccc23)cc1)c1cnn(C2CCCC2)c1 [US9926282, Example 374]"
5,< 100,"O=C(Nc1ccc(-c2n[nH]c(=O)c3ccccc23)cc1)c1cnn(CC(O)C(F)(F)F)c1 (centres undefined) [US9926282, Example 378]"

row,SMILES,IC50 [nM]
1,"O=C(Nc1ccc(-c2n[nH]c(=O)c3ccccc23)c(Cl)c1)c1nn(CC2CNC2)c2ccccc12 [US9926282, Example 327]",< 100
2,"O=C(Nc1ccc(-c2n[nH]c(=O)c3ccccc23)cc1)c1nn(CC2CCNCC2)c2ccccc12 [US9926282, Example 342]",< 100
3,"O=C(Nc1ccc(-c2n[nH]c(=O)c3ccccc23)cc1)c1cnn(C2CCCCC2)c1 [US9926282, Example 373]",< 100
4,"CCCn1cc(C(=O)Nc2ccc(-c3n[nH]c(=O)c4ccccc34)cc2)cn1 [US9926282, Example 382]",< 100

# Reference: BindingDB's records for patent US9926282 (Bristol-Myers Squibb, 2018)
